Measured values reported in patent US7897759B2, “Metabolically stable puromycin analogs” (MUSC Foundation for Research Development, priority 2007, dated 2011).

Key:
[1] = system: JC murine mammary adenocarcinoma cells growing in Balb/c mice; assay: Antitumor effects in murine mammary tumor model; assay type: in vivo; conditions: 50 mg/kg intraperitoneal on days 7 and 12, FIG. 3
Protocol: Model: JC murine mammary adenocarcinoma cells growing in Balb/c mice. Treatment is started when tumor are small, typically ˜20 mm3.
(§1) Treatment: Drug was administered by intraperitoneal injection on days 7, and 12 at 50 mg/kg dissolved in 50% DMSO:50% PBS.

[2] = system: breast cancer (MCF-7) cells; assay: SRB cytotoxicity assay in MCF-7 cells; assay type: cell-based; conditions: 72 h, FIG. 1
Protocol: Dump media and wash wells with PBS. Add approx 100 μL 10% TCA to wells using squirt bottle. Incubate at 4° C. for 30 minutes to 1 hour. Dump TCA and wash plate 5 times with water (use beaker for washes). Add 100 ul SRB dye to wells. Incubate at room temperature for 30 minutes. Dump dye and wash plate 4 times with 1% acetic acid (use beaker for washes). Add 200 μL Tris Base to wells. Incubate at room temperature with agitation for at least 1 hour. Use Softmax pro plate reader with SRB560.
MCF-7 cells were plated at a density of 50,000 cells/well (99 μL/well) in a 96-well microtiter plate and allowed to adhere at 37° C. for 4 h. The drug (dissolved in 1 μL of DMSO/medium solution) was added and cells were incubated at 37° C. for 72 h. 100 μL of a 10% solution of trichloroacetic acid was then added and the cells were incubated for 1 h at 4° C. The supernatant was removed and the plate was washed 5 times with water. 100 μL of SRB dye (Promega) was added and the plate was incubated at rt for 30 min. The dye was removed and the plate was washed 4 times with 1% acetic acid solution. 200 μL of Tris Base was added, and the plate was incubated at rt with agitation for 1 h. Absorbance was read at 560 nm.

leukemia (HL-60) cells = assay: MTS cytotoxicity assay in HL-60 cells; assay type: cell-based; conditions: 72 h, FIG. 2
Protocol: HL-60 cells were plated at a density of 4,000 cells/well (99 μL/well) in a 96-well microtiter plate. The drug (dissolved in 1 μL of DMSO/medium solution) was added and cells were incubated at 37° C. for 72 h. 20 μL of a solution of MTS/PMS (Promega, 5% PMS/MTS) was then added, the cells were incubated for 1 h, after which absorbance was read at 490 nm.

[3] = Body weight / toxicity in murine mammary tumor model; assay type: in vivo
Protocol: Model: JC murine mammary adenocarcinoma cells growing in Balb/c mice.
as §1

[4] = system: Bacillus cereus ATCC 10987; conditions: B. cereus; Gilbert et al., Tetrahedron 2005; cited from earlier work
[5] = system: Bacillus subtilis ATCC 6633; conditions: B. subtilis; Gilbert et al., Tetrahedron 2005; cited from earlier work

| SMILES | effect on tumor growth [1] | cytotoxic activity (killing curve) versus puromycin [2] | cytotoxic activity (killing curve) versus puromycin (leukemia (HL-60) cells) | toxicity ([3]; 50 mg/kg intraperitoneal on days 7 and 12) | effect on body weight ([3]; 50 mg/kg intraperitoneal, during the treatment period (or after), FIG. 4) | antimicrobial activity (MIC) [4] | antimicrobial activity (MIC) [5] |
| --- | --- | --- | --- | --- | --- | --- | --- |
| CN(C)c1ncnc2c1ncn2[C@@H]1O[C@H](CO)[C@H](CC(=O)[C@@H](N)Cc2ccccc2)C1O (stereo partly drawn) [GG-48, 9-{3-[1-(3-amino-2-oxo-4-phenyl)butyl]-3-deoxy-D-ribofuranosyl}-6-dimethylaminopurine] | suppressed tumor growth | killing curves overlapping those of puromycin | killing curves overlapping those of puromycin | no obvious toxicity | no loss of body weight |  |  |
| COc1ccc(C[C@H](N)C(=O)N[C@H]2[C@@H](O)[C@H](n3cnc4c(N(C)C)ncnc43)O[C@@H]2CO)cc1 [puromycin] |  |  |  |  |  | 3.13 µg/mL | 3.13 µg/mL |
